Measurements from patent US20240279230A1, “CRYSTALLINE FORMS OF A HER2 INHIBITOR” (Boehringer Ingelheim International GmbH, priority 2022, published 2024).
“Also recorded” adds a separate entry of the source.

Legend:
Type in all cases: physicochemical
[1] = Temperature stress tests with form I, form II and form VI, PXRD; conditions: 6 h at 150° C. (closed vial)
[2] = Dynamic Vapor Sorption (DVS) sorption isotherms, hygroscopic behaviour; conditions: for Hygroscopicity: DVS classification; for Δm (0-80%), moisture absorbed at 80% RH / Δm (0-90%), maximum water uptake: DVS, 25.0 ±1.0° C.; for Δm (0-90%), maximum water uptake: up to 90% RH; for Hysteresis: between sorption and desorption curves
Procedure: The methodology for this can be as follows. The mass of the solids is monitored as the relative humidity (RH) was deliberately changed. The RH is cycled twice from 0% to 90% to 0% in 10% steps. The temperature during measurement is kept constantly at (25.0 ±1.0° C.) Each step is held until mass stability was achieved. A camera inside the instrument captured an image at the conclusion of each stage, allowing for the observation of any visual changes in the solid form during the analysis.

[3] = Thermogravimetric Analysis (TGA); conditions: Decomposition; 20° C./min
Procedure: The methodology for this can be as follows. Solid compounds (˜5 mg) are placed in an aluminium pan and sealed. The instrument used for the analysis is a TA Instruments TGA 550. The same sample lots from DSC testing are used for TGA testing. Processing is completed using TRIOS software.

- PXRD of stressed sample [1]: Form I
- Hygroscopicity [2]: hygroscopic
- Hygroscopicity ([2]; listed as form I): hygroscopic
- Δm (0-80%), moisture absorbed at 80% RH [2]: 5.4 wt %
- Δm (0-80%), moisture absorbed at 80% RH ([2]; listed as form I): 5.4 wt %
- Δm (0-90%), maximum water uptake [2]: 7.3 wt %
- Δm (0-90%), maximum water uptake ([2]; listed as form I): 7.3 wt %
- Phase change during DVS experiment ([2]; RH cycled twice 0% to 90% to 0%): no irreversible phase changes
- Hysteresis [2]: yes
- Hysteresis ([2]; listed as form I): significant hysteresis
- TGA change in mass [3]: 47.883%
- TGA end [3]: 463.12 °C
- TGA onset [3]: 419.14 °C
Structure (SMILES): C=CC(=O)NC1CCN(c2ncc3ncnc(Nc4ccc(Oc5ccc6c(c5)ncn6C)c(C)c4)c3n2)CC1 [Form I, N-{1-[8-({3-methyl-4-[(1-methyl-1H-1,3-benzodiazol-5-yl)oxy]phenyl}amino)-[1,3]diazino[5,4-d]pyrimidin-2-yl]piperidin-4-yl}prop-2-enamide]
- PXRD of stressed sample ([1]; listed as form I): remained unchanged; also recorded: polymorphically stable
